Structures can show the parent of a compound that is named as a salt.
Test system: cardiac ischemia
Test: dosage study in the monkey model of cardiac ischemia
Type: in vivo
Procedure: This was done in groups of n=8 animals. […] The control groups consisted of sham operated animals undergoing no ischemia, and 2 groups undergoing cardiac ischemia: a saline control (n=8), and a “positive control” group (n=8) treated with Metoprolol tartrate (3 mg/kg), as usually applied to MI patients.

[1] = day 7, positive control 3 mg/kg

## COCCc1ccc(OCC(O)CNC(C)C)cc1 (stereo not shown) [Metoprolol tartrate]
[1]
  NT Pro BNP concentration: 45.7 ± 15.4 pg/mL
  ratio of infarcted heart area: 5.80+/−1.83%
Positive control 3 mg/kg
  index of myocardial contractility (−dp/dt): remained unchanged
  reduction of infarcted area versus saline control: 55%
